Laboratory results published in US5821243A, “Compounds compositions and methods for treating influenza” (priority 1997, dated 1998).
Counter-ions that a name gives are not always drawn. Like-named read-outs stand apart in the source and are kept apart here.

Columns and labels:
influenza = assay: Potency against influenza (test not specified)
influenza A/WSN virus = assay: Plaque reduction in MDCK cells, influenza A/WSN
Method: (§1) Compounds were evaluated for antiviral activity against influenza A/WSN, A/Victoria and B/Lee viruses by plaque reduction in Madin Darby canine kidney (MDCK) cells. Duplicate monolayers of MDCK cells in 6 well plates were washed free of protein-containing media, infected with 50-100 plaque-forming units of virus (0.4 ml. volume), and incubated at 37° C. for 60 minutes. After aspiration of the virus inoculum, a 0.6% agarose overlay (3 ml.) containing Eagle minimal essential media, trypsin (8 μg/ml.), and the appropriate drug dilution (final concentration of 1% DMSO) was added to the cell monolayer. Plates were incubated at 370° C. in a humidified atmosphere of 5% CO2 in air. After 48 hours, monolayers were fixed with glutaraldehyde, stained with 0.1% crystal violet and the plaques were counted. The percentage of plaque inhibition relative to the infected control (no drug) plates were calculated for each drug concentration and the 50% inhibitory concentration (IC50) was determined.

[1] = tested on: influenza A/Victoria virus; assay: Plaque reduction in MDCK cells, influenza A/Victoria
Method: as §1

influenza B/Lee virus = assay: Plaque reduction in MDCK cells, influenza B/Lee; settings: read-out: IC50, […], B/Lee, 48 hours
Method: as §1

[2] = molecular target: influenza A/WSN virus transcriptase (Influenza A virus, UniProt P03427+P03430+P15659); assay: biochemical; settings: 45 minutes at 31° C, 1% DMSO; read-out: IC50, concentration required to achieve 50% inhibition of influenza A/WSN virus transcriptase activity
[3] = molecular target: influenza virus cleavage of cap 1 RNA (Influenza A virus, UniProt P03427+P15659); assay: Assay for cleavage of cap 1 AIMV RNA4 by influenza virus; format: biochemical; settings: read-out: IC50, 50% inhibition of influenza virus cleavage of cap 1 RNA
MDCK cells = assay: Cell growth assay (MTT) in MDCK cells; format: cell-based, canine; settings: Canis lupus familiaris, 2-3 days, read-out: IC50, concentration required to achieve a 50% reduction of optical density (cell growth)
Method: Effects of the pyridazine derivatives of the invention on cell growth were determined in MDCK cells in 96 well plates by a tetrazolium-based calorimetric method (R. Pauwels et al., J. Virol. Methods, 20, 309-321 (1988)). This assay detects the in situ reduction of 3-(4,5-dimethylthiazol-2-yl)-2,5-diphenyltetrazolium bromide (MTT) by viable cells. Approximately 1×10^4 cells were seeded per well and incubated with drug-containing growth media for 2-3 days (3-4 cell doublings). The drug concentration resulting in a reduction of optical density by 50% was determined.

[4] = MDCK, 48 h, read-out: IC50, […], A/WSN, MDCK cells, 48 hours
[5] = MDCK, 48 h, read-out: IC50, […], A/Victoria, MDCK cells, 48 hours
[6] = read-out: IC50, […], A/WSN, MDCK cells, 48 hours

Which potency against influenza (influenza) does the source give for `CC1=NN(c2ccc(S(=O)(=O)Nc3cccnc3)cc2)C(=O)C(=O)C1=O` [N-(3-pyridyl)-4-(6-methyl-3,4,5-trioxo-2H,3H,4H,5H-pyridazinyl)benzenesulfonamide] here?
Its potency against influenza is “significant potency”.

For `CC1=NN(c2ccc(C(=O)O)c(Cl)c2)C(=O)C(=O)C1=O` [Example 3, 2-chloro-4-(6-methyl-3,4,5-trioxo-2H,3H,4H,5H-pyridazinyl)benzoic acid], which IC50 (influenza A/WSN virus; [4]) is on record?
The IC50 was 16 µM.

What about the IC50 [1, 5] of the same molecule?
Its IC50 is 50 µM.

Which potency against influenza (influenza) does the source give for `CC1=NN(c2ccc(S(=O)(=O)Nc3ccccc3)cc2)C(=O)C(=O)C1=O` [N-phenyl-4-(6-methyl-3,4,5-trioxo-2H,3H,4H,5H-pyridazinyl)benzenesulfonamide] here?
Its potency against influenza is “significant potency”.

`CC1=NN(c2ccc(C)c(S(N)(=O)=O)c2)C(=O)C(=O)C1=O` [2-methyl-5-(6-methyl-3,4,5-trioxo-2H,3H,4H,5H-pyridazinyl)benzenesulfonamide] was tested. Which potency against influenza (influenza) did it give?
Its potency against influenza is “significant potency”.

`CC1=NN(c2ccc(S(N)(=O)=O)cc2)C(=O)C(=O)C1=O` [Example 5, Sodium Salt of 4-(6-methyl-3,4,5-trioxo-2H,3H,4H,5H-pyridazinyl)benzoic sulfonamide] was tested. Which IC50 (influenza A/WSN virus; [6]) did it give?
Its IC50 is 8 µM.

And the IC50 (influenza B/Lee virus)?
The IC50 was 30 µM.

And the IC50 ([1]; read-out: IC50, […], A/Victoria, MDCK cells, 48 hours)?
The IC50 was 11 µM.

Which potency against influenza (influenza) does the source give for `CC1=NN(c2ccc(C(N)=O)cc2)C(=O)C(=O)C1=O` [4-(6-methyl-3,4,5-trioxo-2H,3H,4H,5H-pyridazinyl)benzenecarboxamide] here?
The potency against influenza was “significant potency”.

For `CC1=NN(c2ccc3c(c2)S(=O)(=O)NC3=O)C(=O)C(=O)C1=O` [6-(6-methyl-3,4,5-trioxo-2H,3H,4H,5H-pyridazinyl)-1,1-dioxo-1,2-dihydro-1λ^6-benz<d>isothiazol-3-one], which potency against influenza (influenza) is on record?
The potency against influenza was “significant potency”.

Which IC50 (influenza A/WSN virus; [4]) does the source give for `CC1=NN(c2ccc(-c3nn[nH]n3)cc2)C(=O)C(=O)C1=O` [Example 7, Sodium Salt of 2-(4-tetrazolylphenyl) 2,3,4,5-tetrahydro-6-methyl-pyridazine-3,4,5-trione] here?
The IC50 was 2 µM.

For `CC(=O)NS(=O)(=O)c1ccc(N2N=C(C)C(=O)C(=O)C2=O)cc1` [N-acetyl-4-(6-methyl-3,4,S-trioxo-2H,3H,4H,5H-pyridazinyl)benzenesulfonamide], which potency against influenza (influenza) is on record?
The potency against influenza was “significant potency”.

For `CC1=NN(c2ccc(-c3nnn[nH]3)cc2)C(=O)C(=O)C1=O` [Example 6, 2-(4-tetrazolylphenyl) 2,3,4,5-tetrahydro-6-methyl-pyridazine-3,4,5-trione], which IC50 [2] is on record?
The IC50 was 0.2 µM.

And the IC50 (influenza A/WSN virus; [4])?
The IC50 was 1 µM.

What about the IC50 [1, 5] of the same molecule?
The IC50 was 2 µM.

Which potency against influenza (influenza) does the source give for `CNS(=O)(=O)c1ccc(N2N=C(C)C(=O)C(=O)C2=O)cc1` [N-methyl-4-(6-methyl-3,4,5-trioxo-2H,3H,4H,5H-pyridazinyl)benzenesulfonamide] here?
The potency against influenza was “significant potency”.

How did the potency against influenza (influenza) turn out when `CNS(=O)(=O)c1ccc(Cl)c(N2N=C(C)C(=O)C(=O)C2=O)c1` [N-methyl-4-chloro-3-(6-methyl-3,4,5-trioxo-2H,3H,4H,5H-pyridazinyl)benzenesulfonamide] was run?
The potency against influenza was “significant potency”.

How did the IC50 [2] turn out when `CC1=NN(c2ccc(S(N)(=O)=O)cc2)C(=O)C(=O)C1=O` [Example 4, 4-(6-methyl-3,4,5-trioxo-2H,3H,4H,5H-pyridazinyl)benzene sulfonamide] was run?
The IC50 was 1 µM.

And the IC50 [3]?
The IC50 was 2 µM.

What about the IC50 (MDCK cells) of the same molecule?
The IC50 was > 100 µM.

And the IC50 (influenza A/WSN virus; [4])?
The IC50 was 8 µM.

And the IC50 [1, 5]?
The IC50 was 8 µM.

With `CC1=NN(c2ccc3[nH]nnc3c2)C(=O)C(=O)C1=O` [Example 9, 5-benzotriazolyl-2,3,4,5-tetrahydro-6-methyl-pyridazine-3,4,5-trione] as the molecule, how does the IC50 (influenza A/WSN virus; [4]) read?
Its IC50 is 20 µM.

Which results are given for `CC1=NN(c2ccc(C(=O)O)cc2C)C(=O)C(=O)C1=O` [Example 2, Sodium Salt of 3-methyl-4-(6-methyl-3,4,5,-trioxo-2H,3H,4H,5H-pyridazinyl)benzoic acid]?
IC50 (influenza A/WSN virus; [6]): 100 µM; IC50 (influenza B/Lee virus): > 200 µM

With `CC1=NN(c2ccc3[nH]ncc3c2)C(=O)C(=O)C1=O` [Example 8, 5-indazolyl-2,3,4,5-tetrahydro-6-methyl-pyridazine-3,4,5-trione] as the molecule, how does the IC50 (influenza A/WSN virus; [4]) read?
The IC50 was 50 µM.

Which IC50 [2] does the source give for `CC1=NN(c2ccc(C(=O)O)cc2C)C(=O)C(=O)C1=O` [Example 1, 3-methyl-4-(6-methyl-3,4,5-trioxo-2H,3H,4H,5H-pyridazinyl)benzoic acid] here?
Its IC50 is 0.1 µM.

And the IC50 [3]?
The IC50 was 0.2 µM.

And the IC50 (MDCK cells)?
Its IC50 is > 200 µM.

What about the IC50 (influenza A/WSN virus; [4]) of the same molecule?
The IC50 was 50 µM.

What about the IC50 [1, 5] of the same molecule?
The IC50 was 90 µM.
